Consider one compound from ChEMBL document CHEMBL1158459, “Discovery of a peroxisome proliferator activated receptor gamma (PPARgamma) modulator with balanced PPARalpha activity for the treatment of type 2 diabetes and dyslipidemia” (J Med Chem, 2009).

Data set [1] is described as follows: AUC in Beagle dog at 50 mg/kg, po once daily for 14 days. Further details: dose 50 mg/kg, route oral. It is filed as ADME, organism-based, Canis lupus familiaris. The settings on record: plasma.
A short description of data set [2]: Cmax in Beagle dog at 50 mg/kg, po once daily for 14 days. Particulars: in vivo. On the set-up: dose 50 mg/kg, route oral. It is filed as ADME, organism-based, Canis lupus familiaris.
A short description of data set [3]: AUC in Syrian golden hamster at 100 mg/kg, po once daily for 9 days. The data set is classed as ADME, organism-based, Mesocricetus auratus. On the set-up: dose 100 mg/kg, route oral. Particulars: plasma.
The nature of data set [4]: AUC in Sprague-Dawley rat at 300 mg/kg, po once daily for 14 days. The data set is classed as ADME, organism-based. Particulars: plasma. On the set-up: dose 300 mg/kg, route oral.
Data set [5] has as its system Syrian golden hamster. The data set can be described thus: Antidiabetic activity in Syrian golden hamster assessed as reduction in triglyceride level at 100 mg/kg, po once daily for 9 days relative to control. The data set is classed as functional, Mesocricetus auratus. Further details: scale not given: the % may be the effect or the level left.
The test system of the next data set is Canis familiaris. Briefly: Antidiabetic activity in Beagle dog assessed as reduction in total cholesterol level at 50 mg/kg, po once daily for 14 days relative to control. The data set is classed as functional, Canis lupus familiaris. Further details: scale not given: the % may be the effect or the level left.
Data set [6] has as its system Syrian golden hamster. The data set can be described thus: Antidiabetic activity in Syrian golden hamster assessed as reduction in cholesterol level at 100 mg/kg, po once daily for 9 days relative to control. Further details: scale not given: the % may be the effect or the level left. It is filed as functional, Mesocricetus auratus.

Molecules are shown by their SMILES.

In general, AUC refers to concentration integrated over time. One may read the Cmax as the peak of the concentration-time curve. `CC(C)OC(=O)C(C)(C)Oc1ccc(C(=O)c2ccc(Cl)cc2)cc1` [FENOFIBRATE]: the AUC at 336 h in data set [1] is 117 µM·h; in data set [4], 5600 µM·h. The compound also had a Cmax in data set [2] of 15 µM. This compound also returned an AUC at 216 h in data set [3] of 1800 µM·h. Further, the Activity came out at 33.7% in the data set on Syrian golden hamster [5], 17% in the data set with Canis familiaris and 22.7% in the data set on Syrian golden hamster [6].
